Results on three substances are retold here after US20040002441A1, “Recombination modulators and methods for producing and using the same” (priority 2000, published 2004).

For test [1], the target named is T1, bacteriophage λ Integrase (Int) (Escherichia phage lambda, UniProt P03700).
T1 sequence (P03700 1-356): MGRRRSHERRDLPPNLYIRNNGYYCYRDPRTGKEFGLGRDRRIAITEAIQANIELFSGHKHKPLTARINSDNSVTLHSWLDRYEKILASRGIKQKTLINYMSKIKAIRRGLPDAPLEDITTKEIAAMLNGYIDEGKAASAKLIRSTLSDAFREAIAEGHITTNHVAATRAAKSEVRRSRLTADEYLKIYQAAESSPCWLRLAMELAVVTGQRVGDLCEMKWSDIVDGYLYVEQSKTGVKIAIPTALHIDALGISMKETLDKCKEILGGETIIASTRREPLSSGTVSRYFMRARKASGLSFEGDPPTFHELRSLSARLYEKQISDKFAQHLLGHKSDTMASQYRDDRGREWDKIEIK
T1 sequence (P0A6X7 1-99 partner): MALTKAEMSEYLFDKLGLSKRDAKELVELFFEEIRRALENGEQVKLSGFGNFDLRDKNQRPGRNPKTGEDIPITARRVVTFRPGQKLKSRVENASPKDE
T1 sequence (P0A6Y1 1-94 partner): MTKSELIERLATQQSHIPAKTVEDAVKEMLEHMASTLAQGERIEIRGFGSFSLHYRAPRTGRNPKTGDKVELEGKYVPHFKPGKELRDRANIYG
Description: Int-mediated integrative recombination. The following applies: IC50, inhibition of integrative recombination, integration pathway. Type of test: biochemical. The protocol:
(§1) FIG. 11 depicts effect of peptide KWWCRW (diamonds) and peptide KWWWRW (squares) on the remaining 3 pathways of Int-mediated recombination. Recombination extents were normalized to the amount of recombination in untreated reactions and expressed as relative % recombination. A. Effect of peptides on integrative recombination (IC50 values for both peptides are roughly 0.2 μM). Reactions were assembled as for bent-L recombination except that they were incubated at room temperature, the substrates were a supercoiled plasmid (4.8 kb) carrying attP and ^32P labeled 91 bp PCR fragment encoding attB. […] The recombination substrates were PCR fragments encoding the attL (^32P-labeled) and attR sites. Reactions contained 50 NM Xis in addition to Int and IHF (37 nM), as well as 100 ng salmon sperm DNA, and were incubated at room temperature. C. Effect of peptides on straight-L recombination (IC50 values for peptide KWWCRW is 0.06 μM, while for peptide KWWWRW is slightly over 0.1 μM). Reactions were assembled as for bent-L recombination except that they were incubated at room temperature; the substrates were two PCR fragments, one of which was ^32P-labeled and 187 bp, the other of which was unlabeled and 496 bp.
(§2) Int Assays. […] Dried gels were visualized and quantitated using a Molecular Dynamics PhosphorImager.

Another test deals with T2, vaccinia topoisomerase (Vaccinia virus, UniProt P68698).
T2 construct: made in house; host or cells: Escherichia coli BL21 infected with bacteriophage λCE6
Description: Gel shift of noncovalent topoisomerase-DNA complex (60-bp duplex with CCCTT site). The format is binding. As to conditions: 0.72 to 1.8 μM peptide. The text has this:
To test whether the peptide interferes with the noncovalent association of topoisomerase with the DNA, we assayed the effects of the peptides on the binding of vaccinia topoisomerase to a radiolabeled 60-bp duplex DNA containing a single central CCCTT recognition site. In contrast to the suicide substrate, for which all bound enzymes are trapped in the covalent state, only about 20% of the fully double-stranded DNA molecules that are bound will be linked covalently to the protein (Wittschieben and Shuman, 1997).

Test [2] has as its target restriction enzymes with unique sites in pUC19. Description: Restriction enzyme assays, all enzymes tested. The format is biochemical. The protocol: (§3) Restriction enzyme assays. Restriction digests were performed as specified and the products were separated on 0.8% agarose gels electrophoresed at 80-90V in 1× Tris borate EDTA buffer. Gels were photographed, scanned and quantitated using NIH Image v.1.55, as recommended in the instruction manual.

For the next test, the target named is Xba I. Description: Restriction enzyme assay on pUC19. The format is biochemical. As to conditions: Xba I (TCTAGA). The protocol: as §3
A further test addresses T3, Hind III (Haemophilus influenzae, UniProt P43870).
T3 construct: purchased New England BioLabs
Description: Restriction enzyme assay on pUC19. The format is biochemical. The protocol:
as §3

A further test concerns the target T4, Pst I (Providencia stuartii, UniProt P00640).
T4 construct: purchased New England BioLabs
T4 sequence (P00640 1-326): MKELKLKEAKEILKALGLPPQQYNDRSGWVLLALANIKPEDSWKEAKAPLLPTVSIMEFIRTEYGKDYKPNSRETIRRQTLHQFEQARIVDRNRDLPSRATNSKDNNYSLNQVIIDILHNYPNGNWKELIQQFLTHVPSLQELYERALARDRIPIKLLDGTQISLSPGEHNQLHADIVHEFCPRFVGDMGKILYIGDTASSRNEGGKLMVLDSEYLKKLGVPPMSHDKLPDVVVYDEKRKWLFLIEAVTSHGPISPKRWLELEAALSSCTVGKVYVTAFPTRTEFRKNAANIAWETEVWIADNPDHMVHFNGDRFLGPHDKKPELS
Description: Restriction enzyme assay on pUC19. Type of test: biochemical. On the procedure:
as §3

In a further test the target is Nde I. Description: Restriction enzyme assay on pUC19. The format is biochemical. The following applies: Nde I (CATATG). On the procedure: as §3
Test [3] relates to T4 topoisomerase (type II). As to the kind of experiment: T4 topoisomerase DNA relaxation assay. Type of test: biochemical, bacteriophage T4. As to conditions: for effect on DNA relaxation: 100 μM peptide. On the procedure: T4 topoisomerase assays. Reactions were performed as described (Huff and Kreuzer, 1990) using 30 or 60 ng of enzyme and 200 ng of supercoiled pUC19 per reaction. The products were electrophoresed on 0.8% agarose gels at 40V in 0.5× Tris borate EDTA buffer for about 6 hours. The gel was then stained with EtBr for viewing.

Test [4] concerns the target T5, bacteriophage λ Integrase (Int) (Escherichia phage lambda, UniProt P03700).
T5 sequence (P03700 1-356): T1 sequence (P03700 1-356)
As to the kind of experiment: Int-mediated straight-L recombination. Type of test: biochemical. The protocol:
as §1, §2

As a reminder, the pIC50 is −log10 of the IC50, conventionally taken in molar units.

pIC50: −log10 of the molar value. Where no end group is shown, it is not given here. A value given as a limit tells only on which side of the number the result lay.

As for KWWCRW-NH2 [Peptide 59, KWWCRW], the pIC50 in test [1] is 6.52; in test [2], about 4.40; against Xba I, 4.43; at Hind III, 4.32; against Pst I, 4.36; at Nde I, 4.43. For the same substance, the pIC50 in test [3] (supercoiled pUC19) is 4.40; in [4], 7.22. In addition, at vaccinia topoisomerase, the “effect on formation of the noncovalent topoisomerase-DNA complex” value was “did not inhibit”. In test [3], the “effect on DNA relaxation” value is on record as “blocked it completely”.

As for KWWWRW-NH2 [Peptide 56, KWWWRW], the results for the pIC50 in test [1] and in test [4] were about 6.70 and under 7.00, respectively.

For the substance WKHYNY-NH2 [Peptide 52, WKHYNY], the “effect on DNA relaxation” value in test [3] is listed as “no effect”.
